Laboratory results from patent US9469650B2, “Melampomagnolide B derivatives” (BOARD OF TRUSTEES OF THE UNIVERSITY OF ARKANSAS, priority 2013, dated 2016).

How the values were obtained:
[1] = system: CCRF-CEM; test: panel of 60 human tumor cell lines, growth inhibition (Leukemia); settings: Homo sapiens
[2] = system: SK-MEL-5; test: panel of 60 human tumor cell lines, growth inhibition (Melanoma); settings: Homo sapiens
[3] = system: UACC-257; test: as above
[4] = system: COLO 205; test: panel of 60 human tumor cell lines, growth inhibition (Colon Cancer); settings: Homo sapiens
[5] = system: HCT-15; test: as above; settings: Homo sapiens
[6] = system: RXF 393; test: panel of 60 human tumor cell lines, growth inhibition (Renal Cancer); settings: Homo sapiens
[7] = system: TK-10; test: as above; settings: Homo sapiens; for GI50: TK-10, TK-10
[8] = system: MCF7; test: panel of 60 human tumor cell lines, growth inhibition (Breast Cancer); settings: Homo sapiens; for GI50: MCF7, MCF7
[9] = system: BT-549; test: as above; settings: Homo sapiens
[10] = system: MDA-MB-468; test: as above; settings: Homo sapiens
[11] = system: IGROV1; test: panel of 60 human tumor cell lines, growth inhibition (Ovarian Cancer); settings: Homo sapiens
[12] = system: OVCAR-8; test: as above; settings: Homo sapiens
[13] = system: SK-OV-3; test: as above; settings: Homo sapiens
[14] = system: A549/ATCC; test: panel of 60 human tumor cell lines, growth inhibition (Non-Small Cell Lung Cancer); settings: Homo sapiens
[15] = system: HOP-92; test: as above; settings: Homo sapiens
[16] = system: NCI-H23; test: as above; settings: Homo sapiens
[17] = system: NCI-H522; test: as above; settings: Homo sapiens

`C=C1C(=O)O[C@H]2[C@H]1CC/C(COC(=O)Nc1n[nH]c(SC)n1)=C\CC[C@@]1(C)O[C@@H]21` [JVM 64, ((1aR,7aS,10aS,10bS,E)-1a-methyl-8-methylene-9-oxo-1a,2,3,6,7,7a,8,9,10a,10b-decahydrooxireno[2′,3′:9,10]cyclodeca[1,2-b]furan-5-yl)methyl-(5-(methylthio)-1H-1,2,4-triazol-3-yl)carbamate] was tested, and the GI50 ([1]; 5-dose assay) was 0.62 µM, the GI50 ([1]; NCI five dose) was 0.626 µM and the GI50 ([1]; leukemia cell line CCRF-CEM) was 0.62 µM. It also gave a CC50 ([1]; read-out: LC50) of 55.8 µM, an IC (TGI) ([1]; read-out: TGI) of 3.56 µM and a GI50 ([2]; SK-MEL-5) of 3.13 µM. The CC50 ([2]; SK-MEL-5, read-out: LC50) was 37.5 µM, the IC (TGI) ([2]; SK-MEL-5, read-out: TGI) was 12.4 µM and the GI50 ([3]; Homo sapiens, UACC-257) was 1.66 µM. For the same compound, the CC50 ([3]; Homo sapiens, UACC-257, read-out: LC50) was 31.9 µM, the “Percent Growth” value ([3]; UACC-257, Log10 Concentration −4.0) was −80% and the “Percent Growth” value ([3]; UACC-257, Log10 Concentration −5.0) was −20%. For the same compound, the “Percent Growth” value ([3]; UACC-257, Log10 Concentration −6.0) was 70%, the “Percent Growth” value ([3]; UACC-257, Log10 Concentration −7.0) was 93% and the “Percent Growth” value ([3]; UACC-257, Log10 Concentration −8.0) was 102%. For the same compound, the TGI ([3]; UACC-257, NCI five dose) was 6.02E−6, the GI50 ([4]; COLO 205) was 1.79 µM and the CC50 ([4]; COLO 205, read-out: LC50) was 7.35 µM. For the same compound, the IC (TGI) ([4]; COLO 205, read-out: TGI) was 3.63 µM, the GI50 ([5]; HCT-15) was 2.4 µM and the CC50 ([5]; HCT-15, read-out: LC50) was 38 µM. It also gave an IC (TGI) ([5]; HCT-15, read-out: TGI) of 9.05 µM, a GI50 ([6]; RXF 393, RXF 393, 5-dose assay) of 0.9 µM and a GI50 ([6]; RXF 393, RXF 393, NCI five dose) of 0.906 µM. The CC50 ([6]; RXF 393, read-out: LC50) was 6.02 µM, the IC (TGI) ([6]; RXF 393, read-out: TGI) was 2.41 µM and the GI50 ([6]; RXF 393, renal cancer cell line RXF 393) was 0.9 µM. The GI50 ([7]; 5-dose assay) was 2.51 µM, the GI50 ([7]; NCI five dose) was 2.51 µM and the CC50 ([7]; TK-10, read-out: LC50) was 27.4 µM. For the same compound, the IC (TGI) ([7]; TK-10, read-out: TGI) was 7.16 µM, the GI50 ([8]; 5-dose assay) was 1.33 µM and the GI50 ([8]; NCI five dose) was 1.33 µM. For the same compound, the CC50 ([8]; MCF7, read-out: LC50) was 70.2 µM, the IC (TGI) ([8]; MCF7, read-out: TGI) was 10.5 µM and the GI50 ([9]; BT-549) was 1.47 µM. For the same compound, the CC50 ([9]; BT-549, read-out: LC50) was 6.24 µM, the IC (TGI) ([9]; BT-549, read-out: TGI) was 3.83 µM and the GI50 ([10]; MDA-MB-468) was 1.29 µM. For the same compound, the CC50 ([10]; MDA-MB-468, read-out: LC50) was 21.8 µM, the IC (TGI) ([10]; MDA-MB-468, read-out: TGI) was 4.04 µM and the GI50 ([11]; IGROV-1) was 3.66 µM. It also gave a CC50 ([11]; IGROV-1, read-out: LC50) of 57.8 µM, an IC (TGI) ([11]; IGROV-1, read-out: TGI) of 14.2 µM and a GI50 ([12]; OVCAR-8) of 2.71 µM. The CC50 ([12]; OVCAR-8, read-out: LC50) was 51.6 µM, the IC (TGI) ([12]; OVCAR-8, read-out: TGI) was 12.1 µM and the GI50 ([13]; SK-OV-3) was 11.7 µM. It also gave a CC50 ([13]; SK-OV-3, read-out: LC50) greater than 100 µM, an IC (TGI) ([13]; SK-OV-3, read-out: TGI) of 35.8 µM and a GI50 ([14]; A549) of 4.19 µM. It also gave a CC50 ([14]; A549, read-out: LC50) of 83.5 µM, an IC (TGI) ([14]; A549, read-out: TGI) of 19.9 µM and a GI50 ([15]; HOP-92, HOP-92, 5-dose assay) of 0.65 µM. It also gave a GI50 ([15]; HOP-92, HOP-92, NCI five dose) of 0.655 µM, a GI50 ([15]; HOP-92, non-small cell lung cancer cell line HOP-92) of 0.65 µM and a CC50 ([15]; HOP-92, read-out: LC50) of 20.4 µM. For the same compound, the IC (TGI) ([15]; HOP-92, read-out: TGI) was 3.84 µM, the GI50 ([16]; NCI-H23) was 3.21 µM and the CC50 ([16]; NCI-H23, read-out: LC50) was 63.6 µM. The IC (TGI) ([16]; NCI-H23, read-out: TGI) was 14.1 µM, the GI50 ([17]; NCI-H522) was 1.26 µM and the CC50 ([17]; NCI-H522, read-out: LC50) was 7.87 µM. The IC (TGI) ([17]; NCI-H522, read-out: TGI) was 3.17 µM.
